According to BindingDB's records for doi:10.1016/j.bmcl.2020.127669 (Janssen Research & Development, 2021):

Target: 5-hydroxytryptamine receptor 2B (Homo sapiens, UniProt P41595)
Assay: Displacement of […] from human 5-HT2B receptor by competitive radioligand binding assay

Chain of 5-hydroxytryptamine receptor 2B (P41595 whole entry): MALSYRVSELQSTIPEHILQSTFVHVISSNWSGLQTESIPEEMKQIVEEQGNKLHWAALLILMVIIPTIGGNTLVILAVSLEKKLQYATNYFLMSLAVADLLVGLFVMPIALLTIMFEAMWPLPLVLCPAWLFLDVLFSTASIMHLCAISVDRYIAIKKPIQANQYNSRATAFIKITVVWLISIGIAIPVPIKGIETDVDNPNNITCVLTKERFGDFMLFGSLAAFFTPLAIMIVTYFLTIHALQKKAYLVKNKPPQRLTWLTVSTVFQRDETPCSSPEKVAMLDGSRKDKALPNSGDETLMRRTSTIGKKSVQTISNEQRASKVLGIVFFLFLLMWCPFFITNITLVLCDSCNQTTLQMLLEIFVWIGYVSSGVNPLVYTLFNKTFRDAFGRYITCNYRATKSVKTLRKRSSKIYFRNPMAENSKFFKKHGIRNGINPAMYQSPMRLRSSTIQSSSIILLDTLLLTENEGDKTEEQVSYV

- Ki: 25 nM
SMILES: CC(C)n1nc2c(c1-c1ccc(F)cc1)CCNCC2
